According to patent US20230000876A1, “TREATING CANCERS WITH A CYCLIN-DEPENDENT KINASE INHIBITOR” (Nuvation Bio Inc., priority 2021, published 2023):
Where two headings read alike, the source gives them in different places.

How the values were obtained:
MCF-7 tumors [1] = assay type: in vivo; settings: for T/C / TGI: PG-D37
Method: The in vivo anti-tumor efficacy of the compound of formula (I) either alone or in combination with fulvestrant on MCF-7 breast tumor model on female Balb/c nude mice was assessed. MCF-7 cells are a breast cancer cell line that is HR+HER2−. See Booms et al., (2019) Cancer Epidemiol Biomarkers Prev 28(10); 1735-1745, which is hereby incorporated by reference.
The study was in two parts. The first part was designed to measure tumor growth inhibition (TGI). The second part was used to measure pharmacokinetic and pharmacodynamic (PKPD) parameters. In the studies, the compound of formula (I) was dosed orally (po) and fulvestrant was dosed subcutaneously. […]
The MCF-7 tumor cells were maintained in vitro in MEM supplemented with 10% heat inactivated fetal bovine serum at 37° C. in an atmosphere of 5% CO2 in air. The tumor cells were routinely subcultured twice weekly. The cells growing in an exponential growth phase were harvested and counted for tumor inoculation.
Each mouse was inoculated subcutaneously at the right flank with MCF-7 (10*10^6) cells in 0.2 mL of PBS mixed with Matrigel (50:50) for tumor development. 17β-Estradiol (0.36 mg, 60-day release) pellets (Innovative Research of America Cat. No.: SE-121, pellet size: 3.0 mm) were implanted 2 days before cell inoculation.
In TGI part, the treatments was started on day 7 after cell inoculation when the average tumor volume reaches 173 mm^3. 72 mice were selected and assigned into 9 groups. The testing articles were administrated to the mice according to Table 1.
For TGI part, the major endpoint was to see if the tumor growth could be delayed or mice could be cured. Tumor size was measured twice weekly in two dimensions using a caliper, and the volume was expressed in mm^3 using the formula: V=0.5 a×b^2 where a and b are the long and short diameters of the tumor, respectively. The tumor sizes are then used for the calculation of T/C and TGI values.
The T/C value (in percent) is an indication of antitumor effectiveness; T and C are the mean volume of the treated and control groups, respectively, on a given day.
TGI was calculated for each group using the formula: TGI (%)=[1−(Ti−T0)/(Vi−V0)]×100; Ti is the average tumor volume of a treatment group on PG-Di, T0 is the average tumor volume of the treatment group on the day of treatment start, Vi is the average tumor volume of the vehicle control group on the same day with Ti, and V0 is the average tumor volume of the vehicle group on the day of treatment start.
For comparison among of tumor volume of groups 2-9 and group 1, a one-way ANOVA was performed. All the analysis were conducted using GraphPad Prism software. p<0.05 was considered to be statistically significant.

MCF-7 tumors [2] = assay type: in vivo; settings: 1/3/5 mg/dose SC QW, PG-D49
Method: The in vivo anti-tumor efficacy of the compound of formula (I) either alone or in combination with fulvestrant on MCF-7 breast tumor model on female Balb/c nude mice was evaluated. The protocol was he same as described in Example 1 with the exception that the dosing schedule of fulvestrant was modified.

xMDA-MB-361 breast tumor = xMDA-MB-361 breast tumor model (ER-positive/HER2-positive); assay type: in vivo, female BALB/c nude mice; settings: Group 2: Fulvestrant 1 mg/dose SC QW*42 days
Method: Trastuzumab, tucatinib, Compound (I), and fulvestrant were tested in a xMDA-MB-361 breast tumor model (ER-positive/HER2-positive) on female BALB/c nude mice.

xBT474 breast tumor = xBT474 breast tumor model (ER-negative/HER2-positive); settings: Group 2: Fulvestrant 1 mg/dose SC QW*28 days

**Q.** What does the source list for `C[C@]12CC[C@@H]3c4ccc(O)cc4C[C@@H](CCCCCCCCC[S+]([O-])CCCC(F)(F)C(F)(F)F)[C@H]3[C@@H]1CC[C@@H]2O` (stereo partly shown) [Fulvestrant, reference compound]?
**A.** T/C (MCF-7 tumors [1]; 1 mg/dose QW): 42.68%; TGI (MCF-7 tumors [1]; 1 mg/dose QW): 62.74%; Tumor volume (mean ± SEM) (MCF-7 tumors [1]; 1 mg/dose SC QW, day 0): 173 ± 12 mm^3; Tumor volume (mean ± SEM) (MCF-7 tumors [1]; 1 mg/dose SC QW, day 3): 206 ± 10 mm^3; Tumor volume (mean ± SEM) (MCF-7 tumors [1]; 1 mg/dose SC QW, day 6): 272 ± 20 mm^3; Tumor volume (mean ± SEM) (MCF-7 tumors [1]; 1 mg/dose SC QW, day 9): 315 ± 33 mm^3; Tumor volume (mean ± SEM) (MCF-7 tumors [1]; 1 mg/dose SC QW, day 13): 389 ± 50 mm^3; Tumor volume (mean ± SEM) (MCF-7 tumors [1]; 1 mg/dose SC QW, day 16): 472 ± 47 mm^3; Tumor volume (mean ± SEM) (MCF-7 tumors [1]; 1 mg/dose SC QW, day 20): 595 ± 87 mm^3; Tumor volume (mean ± SEM) (MCF-7 tumors [1]; 1 mg/dose SC QW, day 23): 623 ± 93 mm^3; Tumor volume (mean ± SEM) (MCF-7 tumors [1]; 1 mg/dose SC QW, day 27): 697 ± 104 mm^3; Tumor volume (mean ± SEM) (MCF-7 tumors [1]; 1 mg/dose SC QW, day 30): 727 ± 116 mm^3; Tumor volume (mean ± SEM) (MCF-7 tumors [1]; 1 mg/dose SC QW, day 34): 829 ± 130 mm^3; Tumor volume (mean ± SEM) (MCF-7 tumors [1]; 1 mg/dose SC QW, day 37): 856 ± 140 mm^3; Tumor volume (mean ± SEM) (MCF-7 tumors [1]; 1 mg/dose SC QW, day 41): 859 ± 142 mm^3; Tumor volume (mean ± SEM) (MCF-7 tumors [1]; 1 mg/dose SC QW, day 44): 808 ± 164 mm^3; Tumor volume (mean ± SEM) (MCF-7 tumors [1]; 1 mg/dose SC QW, day 48): 623 ± 104 mm^3; T/C (MCF-7 tumors [1]; 3 mg/dose QW): 15.70%; TGI (MCF-7 tumors [1]; 3 mg/dose QW): 92.26%; Tumor volume (mean ± SEM) (MCF-7 tumors [1]; 3 mg/dose SC QW, day 0): 173 ± 13 mm^3; Tumor volume (mean ± SEM) (MCF-7 tumors [1]; 3 mg/dose SC QW, day 3): 181 ± 9 mm^3; Tumor volume (mean ± SEM) (MCF-7 tumors [1]; 3 mg/dose SC QW, day 6): 205 ± 16 mm^3; Tumor volume (mean ± SEM) (MCF-7 tumors [1]; 3 mg/dose SC QW, day 9): 240 ± 12 mm^3; Tumor volume (mean ± SEM) (MCF-7 tumors [1]; 3 mg/dose SC QW, day 13): 310 ± 25 mm^3; Tumor volume (mean ± SEM) (MCF-7 tumors [1]; 3 mg/dose SC QW, day 16): 337 ± 33 mm^3; Tumor volume (mean ± SEM) (MCF-7 tumors [1]; 3 mg/dose SC QW, day 20): 285 ± 32 mm^3; Tumor volume (mean ± SEM) (MCF-7 tumors [1]; 3 mg/dose SC QW, day 23): 288 ± 44 mm^3; Tumor volume (mean ± SEM) (MCF-7 tumors [1]; 3 mg/dose SC QW, day 27): 275 ± 35 mm^3; Tumor volume (mean ± SEM) (MCF-7 tumors [1]; 3 mg/dose SC QW, day 30): 294 ± 35 mm^3; Tumor volume (mean ± SEM) (MCF-7 tumors [1]; 3 mg/dose SC QW, day 34): 314 ± 48 mm^3; Tumor volume (mean ± SEM) (MCF-7 tumors [1]; 3 mg/dose SC QW, day 37): 315 ± 50 mm^3; Tumor volume (mean ± SEM) (MCF-7 tumors [1]; 3 mg/dose SC QW, day 41): 329 ± 54 mm^3; Tumor volume (mean ± SEM) (MCF-7 tumors [1]; 3 mg/dose SC QW, day 44): 294 ± 48 mm^3; Tumor volume (mean ± SEM) (MCF-7 tumors [1]; 3 mg/dose SC QW, day 48): 228 ± 29 mm^3; T/C (MCF-7 tumors [2]): 38.19%; TGI (MCF-7 tumors [2]): 71.50%; Tumor Size (MCF-7 tumors [2]): 451 mm^3; Tumor volume (mean ± SEM) (xMDA-MB-361 breast tumor; Day 0): 157 ± 13 mm^3; Tumor volume (mean ± SEM) (xMDA-MB-361 breast tumor; Day 3): 185 ± 11 mm^3; Tumor volume (mean ± SEM) (xMDA-MB-361 breast tumor; Day 7): 226 ± 28 mm^3; Tumor volume (mean ± SEM) (xMDA-MB-361 breast tumor; Day 10): 321 ± 53 mm^3; Tumor volume (mean ± SEM) (xMDA-MB-361 breast tumor; Day 14): 489 ± 101 mm^3; Tumor volume (mean ± SEM) (xMDA-MB-361 breast tumor; Day 17): 588 ± 153 mm^3; Tumor volume (mean ± SEM) (xMDA-MB-361 breast tumor; Day 21): 773 ± 204 mm^3; Tumor volume (mean ± SEM) (xMDA-MB-361 breast tumor; Day 24): 890 ± 235 mm^3; Tumor volume (mean ± SEM) (xMDA-MB-361 breast tumor; Day 28): 1022 ± 256 mm^3; Tumor volume (mean ± SEM) (xMDA-MB-361 breast tumor; Day 31): 1113 ± 293 mm^3; Tumor volume (mean ± SEM) (xMDA-MB-361 breast tumor; Day 35): 1192 ± 330 mm^3; Tumor volume (mean ± SEM) (xMDA-MB-361 breast tumor; Day 38): 1300 ± 344 mm^3; Tumor volume (mean ± SEM) (xMDA-MB-361 breast tumor; Day 42): 1396 ± 356 mm^3; Tumor volume (mean ± SEM) (xBT474 breast tumor; Day 0): 146 ± 10 mm^3; Tumor volume (mean ± SEM) (xBT474 breast tumor; Day 4): 188 ± 26 mm^3; Tumor volume (mean ± SEM) (xBT474 breast tumor; Day 7): 187 ± 14 mm^3; Tumor volume (mean ± SEM) (xBT474 breast tumor; Day 11): 311 ± 55 mm^3; Tumor volume (mean ± SEM) (xBT474 breast tumor; Day 14): 391 ± 55 mm^3; Tumor volume (mean ± SEM) (xBT474 breast tumor; Day 18): 468 ± 69 mm^3; Tumor volume (mean ± SEM) (xBT474 breast tumor; Day 21): 532 ± 79 mm^3; Tumor volume (mean ± SEM) (xBT474 breast tumor; Day 25): 617 ± 93 mm^3; Tumor volume (mean ± SEM) (xBT474 breast tumor; Day 28): 741 ± 113 mm^3; Tumor volume (mean ± SEM) (xBT474 breast tumor; Day 32): 750 ± 115 mm^3; Tumor volume (mean ± SEM) (xBT474 breast tumor; Day 35): 797 ± 121 mm^3; Tumor volume (mean ± SEM) (xBT474 breast tumor; Day 39): 800 ± 131 mm^3; Tumor volume (mean ± SEM) (xBT474 breast tumor; Day 42): 843 ± 146 mm^3; Tumor volume (mean ± SEM) (xBT474 breast tumor; Day 46): 816 ± 138 mm^3
